pIC50: −log10 of the molar value.
Legend:
PRMT5 [1] = target: T1, PRMT5 (Homo sapiens, UniProt O14744); assay: PRMT5 biochemical IC50 assay with SAM as cofactor; conditions: PRMT5, SAM as cofactor; read-out: SAM IC50
T1 construct: purchased Viva (custom protein)

PRMT5 [2] = target: T1, PRMT5; assay: PRMT5 biochemical IC50 assay with no cofactor; conditions: PRMT5, no cofactor; read-out: No Cofactor/rel IC50
Text: Table 1 indicates IC50 values (μM) against PRMT5 for exemplary compounds in the presence of SAM as cofactor, with no cofactor, and with MTA as cofactor, respectively (columns 4-6). […] Ki values can be calculated from the IC50 values as described in the Examples section. As detailed in the Examples section, for the assay performed in the presence of SAM, IC50=Ki×1.5 (Ki=IC50/1.5).

PRMT5 [3] = target: T1, PRMT5; assay: PRMT5 biochemical IC50 assay with MTA as cofactor; conditions: PRMT5, MTA as cofactor; read-out: MTA IC50
[4] = system: HAP1 MTAP-intact cell line; assay: SDMA in-cell western assay, HAP1 MTAP-intact; format: cell-based; conditions: Homo sapiens, HAP1, SDMA in-cell western, HAP1 MTAP-intact; read-out: MTAP HAP1 intact IC50
In short: (§1)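 IC50 values come from SDMA signal quantified by in-cell western in two HAP1 lines, one with native MTAP levels and one lacking MTAP.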

[5] = system: HAP1 MTAP-deleted cell line; assay: SDMA in-cell western assay, HAP1 MTAP-deleted; format: cell-based; conditions: for pIC50: Homo sapiens, HAP1, SDMA in-cell western, HAP1 MTAP-deleted, read-out: HAP 1 MTAP deleted IC50; for MTAP intact/deleted ratio: IC50 ratio HAP1 MTAP-intact / HAP1 MTAP-deleted, SDMA in-cell western
In short: as §1

[6] = system: HAP1 MTAP-deleted cell line; assay: Viability assay, MTAP-deleted cell line; format: cell-based; conditions: Homo sapiens, HAP1, viability IC50, MTAP-deleted cell line; read-out: HAP1 MTAP deleted viability
Text: Table 1 additionally indicates IC50 values in a viability assay for the MTAP-deleted cell line (column 10), indicating the effect of treatment with compound on cell survival.

T1 sequence (O14744 whole entry): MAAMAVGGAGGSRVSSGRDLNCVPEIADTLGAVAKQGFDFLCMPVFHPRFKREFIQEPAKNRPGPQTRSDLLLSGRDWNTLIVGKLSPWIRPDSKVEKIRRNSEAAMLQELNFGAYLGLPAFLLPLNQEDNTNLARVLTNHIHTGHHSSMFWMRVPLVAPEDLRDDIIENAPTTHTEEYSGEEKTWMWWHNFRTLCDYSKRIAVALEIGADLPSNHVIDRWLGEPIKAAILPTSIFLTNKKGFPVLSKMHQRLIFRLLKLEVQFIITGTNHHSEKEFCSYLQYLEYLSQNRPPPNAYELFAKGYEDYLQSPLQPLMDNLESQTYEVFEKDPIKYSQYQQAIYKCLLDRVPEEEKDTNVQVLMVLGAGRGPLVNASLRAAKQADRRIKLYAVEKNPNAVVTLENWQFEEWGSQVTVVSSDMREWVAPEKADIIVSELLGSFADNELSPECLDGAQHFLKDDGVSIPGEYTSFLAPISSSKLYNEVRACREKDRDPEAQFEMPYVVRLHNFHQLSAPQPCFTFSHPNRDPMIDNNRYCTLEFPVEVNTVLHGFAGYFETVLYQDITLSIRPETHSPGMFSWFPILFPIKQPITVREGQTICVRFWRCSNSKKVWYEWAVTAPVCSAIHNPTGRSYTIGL
T1 sequence (Q9BQA1 whole entry partner): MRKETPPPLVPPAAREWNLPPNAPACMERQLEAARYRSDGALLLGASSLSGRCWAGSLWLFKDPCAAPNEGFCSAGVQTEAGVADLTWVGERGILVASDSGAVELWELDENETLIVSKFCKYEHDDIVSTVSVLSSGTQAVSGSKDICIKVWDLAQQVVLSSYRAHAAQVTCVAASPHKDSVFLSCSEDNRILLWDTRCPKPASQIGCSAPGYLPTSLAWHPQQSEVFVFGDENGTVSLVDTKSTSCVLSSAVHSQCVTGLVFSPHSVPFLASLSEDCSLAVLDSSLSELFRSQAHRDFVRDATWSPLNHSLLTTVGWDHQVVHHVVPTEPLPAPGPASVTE

## C[C@@H]1CN(C(=O)C(=O)Nc2cncc(C(N)=O)c2)C[C@H]2CCCC[C@H]21 (racemic) [Compound 542, 5-[[2-[(4S,4aS,8aS)-4-Methyl-3,4,4a,5,6,7,8,8a-octahydro-1H-isoquinolin-2-yl]-2-oxo-acetyl]amino]pyridine-3-carboxamide]
PRMT5 [1]
  pIC50: 6.30 to 7.30
PRMT5 [2]
  pIC50: < 6.30
PRMT5 [3]
  pIC50: 6.30 to 7.30
[4]
  pIC50: < 6.00
[5]
  pIC50: < 6.00
  MTAP intact/deleted ratio: B (an IC50 ratio greater than or equal to 3 fold but lower than 10 fold)
[6]
  pIC50: < 5.00

## C[C@@H]1CN(C(=O)C(=O)Nc2cncc(C(N)=O)c2)C[C@H]2CCCC[C@@H]21 (racemic) [Compound 543, 5-[[2-[(4S,4aR,8aS)-4-Methyl-3,4,4a,5,6,7,8,8a-octahydro-1H-isoquinolin-2-yl]-2-oxo-acetyl]amino]pyridine-3-carboxamide]
PRMT5 [1]
  pIC50: 6.30 to 7.30
PRMT5 [2]
  pIC50: 6.30 to 7.30
PRMT5 [3]
  pIC50: 6.30 to 7.30
[4]
  pIC50: < 6.00
[5]
  pIC50: 6.00 to 7.00
  MTAP intact/deleted ratio: A (an IC50 ratio greater than or equal to 10 fold)
[6]
  pIC50: 5.00 to 6.00

## CC(C)c1cc([C@@H]2CC[C@@H](C)CN2C(=O)C(=O)Nc2cncc(C(N)=O)c2)ccc1O (racemic) [Compound 552, 5-[[2-[(2S,5R)-2-(4-Hydroxy-3-isopropyl-phenyl)-5-methyl-1-piperidyl]-2-oxo-acetyl]amino]pyridine-3-carboxamide]
PRMT5 [1]
  pIC50: 6.30 to 7.30
PRMT5 [2]
  pIC50: 6.30 to 7.30
PRMT5 [3]
  pIC50: > 7.30
[4]
  pIC50: < 6.00
[5]
  pIC50: > 7.00
  MTAP intact/deleted ratio: A (an IC50 ratio greater than or equal to 10 fold)
[6]
  pIC50: > 6.00

## Cc1ccc([C@@H]2CC[C@@H](C)CN2C(=O)C(=O)Nc2cncc(C(N)=O)c2)cc1O (racemic) [Compound 554, 5-[[2-[(2S,5R)-2-(3-hydroxy-4-methyl-phenyl)-5-methyl-1-piperidyl]-2-oxo-acetyl]amino]pyridine-3-carboxamide]
PRMT5 [1]
  pIC50: 6.30 to 7.30
PRMT5 [2]
  pIC50: 6.30 to 7.30
PRMT5 [3]
  pIC50: > 7.30
[4]
  pIC50: < 6.00
[5]
  pIC50: > 7.00
  MTAP intact/deleted ratio: A (an IC50 ratio greater than or equal to 10 fold)
[6]
  pIC50: 5.00 to 6.00

## Cc1cc(NC(=O)C(=O)N2C[C@H](C)CC[C@H]2c2ccc(F)c(O)c2)cnc1N (racemic) [Compound 555, N-(6-amino-5-methyl-3-pyridyl)-2-[(2R,5S)-2-(4-fluoro-3-hydroxy-phenyl)-5-methyl-1-piperidyl]-2-oxo-acetamide]
PRMT5 [1]
  pIC50: 6.30 to 7.30
PRMT5 [2]
  pIC50: 6.30 to 7.30
PRMT5 [3]
  pIC50: > 7.30
[4]
  pIC50: 6.00 to 7.00
[5]
  pIC50: > 7.00
  MTAP intact/deleted ratio: A (an IC50 ratio greater than or equal to 10 fold)
[6]
  pIC50: > 6.00

## Cc1cc(NC(=O)C(=O)N2C[C@H](C)CC[C@H]2c2ccc(-c3ccn[nH]3)s2)cnc1N (racemic) [Compound 556, N-(6-amino-5-methyl-3-pyridyl)-2-[(2R,5S)-5-methyl-2-[5-(1H-pyrazol-5-yl)-2-thienyl]-1-piperidyl]-2-oxo-acetamide]
PRMT5 [1]
  pIC50: 6.30 to 7.30
PRMT5 [2]
  pIC50: 6.30 to 7.30
PRMT5 [3]
  pIC50: 6.30 to 7.30
[4]
  pIC50: 6.00 to 7.00
[5]
  pIC50: > 7.00
  MTAP intact/deleted ratio: A (an IC50 ratio greater than or equal to 10 fold)
[6]
  pIC50: > 6.00

## Cc1cncc(NC(=O)C(=O)N2C[C@H](C)CC[C@H]2c2ccc(O)cc2)c1 (racemic) [Compound 557, rac-2-((2R,5S)-2-(4-hydroxyphenyl)-5-methylpiperidin-1-yl)-N-(5-methylpyridin-3-yl)-2-oxoacetamide]
PRMT5 [1]
  pIC50: 6.30 to 7.30
PRMT5 [2]
  pIC50: 6.30 to 7.30
PRMT5 [3]
  pIC50: 6.30 to 7.30
[4]
  pIC50: < 6.00
[5]
  pIC50: 6.00 to 7.00
  MTAP intact/deleted ratio: A (an IC50 ratio greater than or equal to 10 fold)
[6]
  pIC50: < 5.00

## COc1ccccc1[C@@H]1CC[C@@H](C)CN1C(=O)C(=O)Nc1cncc(C(N)=O)c1 (racemic) [Compound 558, 5-[[2-[(2S,5R)-2-(2-Methoxyphenyl)-5-methyl-1-piperidyl]-2-oxo-acetyl]amino]pyridine-3-carboxamide]
PRMT5 [1]
  pIC50: 6.30 to 7.30
PRMT5 [2]
  pIC50: < 6.30
PRMT5 [3]
  pIC50: 6.30 to 7.30
[4]
  pIC50: < 6.00
[5]
  pIC50: 6.00 to 7.00
  MTAP intact/deleted ratio: A (an IC50 ratio greater than or equal to 10 fold)
[6]
  pIC50: < 5.00

## C[C@@H]1CC[C@@H](c2cc(F)c(O)c(F)c2)N(C(=O)C(=O)Nc2cncc(C(N)=O)c2)C1 (racemic) [Compound 560, rac-5-[[2-[(2R,5S)-2-(3,5-difluoro-4-hydroxy-phenyl)-5-methyl-1-piperidyl]-2-oxo-acetyl]amino]pyridine-3-carboxamide]
PRMT5 [1]
  pIC50: 6.30 to 7.30
PRMT5 [2]
  pIC50: 6.30 to 7.30
PRMT5 [3]
  pIC50: 6.30 to 7.30
[4]
  pIC50: < 6.00
[5]
  pIC50: 6.00 to 7.00
  MTAP intact/deleted ratio: A (an IC50 ratio greater than or equal to 10 fold)
[6]
  pIC50: < 5.00

## CNc1ccc([C@@H]2CCC[C@H](C)N2C(=O)C(=O)Nc2cncc(C(N)=O)c2)cn1 (racemic) [Compound 561, 5-[[2-[(2S,6S)-2-methyl-6-[6-(methylamino)-3-pyridyl]-1-piperidyl]-2-oxo-acetyl]amino]pyridine-3-carboxamide]
PRMT5 [1]
  pIC50: 6.30 to 7.30
PRMT5 [2]
  pIC50: 6.30 to 7.30
PRMT5 [3]
  pIC50: 6.30 to 7.30
[4]
  pIC50: < 6.00
[5]
  pIC50: 6.00 to 7.00
  MTAP intact/deleted ratio: A (an IC50 ratio greater than or equal to 10 fold)
[6]
  pIC50: < 5.00

## Cc1ccc([C@@H]2CC[C@@H](C)CN2C(=O)C(=O)Nc2cnc(N)c(C)c2)cc1O (racemic) [Compound 580, N-(6-amino-5-methylpyridin-3-yl)-2-(2-(3-hydroxy-4-methylphenyl)-5-methylpiperidin-1-yl)-2-oxoacetamide]
PRMT5 [1]
  pIC50: 6.30 to 7.30
PRMT5 [2]
  pIC50: 6.30 to 7.30
PRMT5 [3]
  pIC50: 6.30 to 7.30
[4]
  pIC50: 6.00 to 7.00
[5]
  pIC50: > 7.00
  MTAP intact/deleted ratio: A (an IC50 ratio greater than or equal to 10 fold)
[6]
  pIC50: > 6.00

## Cc1cc(NC(=O)C(=O)N2C[C@H](C)CC[C@H]2c2ccc3c(c2)C(=O)NC3)cnc1N (racemic) [Compound 582, N-(6-amino-5-methyl-3-pyridyl)-2-[(2R,5S)-5-methyl-2-(3-oxoisoindolin-5-yl)-1-piperidyl]-2-oxo-acetamide]
PRMT5 [1]
  pIC50: 6.30 to 7.30
PRMT5 [2]
  pIC50: 6.30 to 7.30
PRMT5 [3]
  pIC50: 6.30 to 7.30
[4]
  pIC50: 6.00 to 7.00
[5]
  pIC50: > 7.00
  MTAP intact/deleted ratio: A (an IC50 ratio greater than or equal to 10 fold)
[6]
  pIC50: 5.00 to 6.00

## C[C@@H]1CC[C@H](c2ccccn2)N(C(=O)C(=O)Nc2cncc(C(N)=O)c2)C1 (racemic) [Compound 584, 5-[[2-[(2R,5R)-5-methyl-2-(2-pyridyl)-1-piperidyl]-2-oxo-acetyl]amino]pyridine-3-carboxamide]
PRMT5 [1]
  pIC50: < 6.30
PRMT5 [2]
  pIC50: < 6.30
PRMT5 [3]
  pIC50: 6.30 to 7.30
[4]
  pIC50: < 6.00
[5]
  pIC50: 6.00 to 7.00
  MTAP intact/deleted ratio: A (an IC50 ratio greater than or equal to 10 fold)
[6]
  pIC50: < 5.00

## C[C@@H]1CC[C@@H](c2ccccc2F)N(C(=O)C(=O)Nc2cncc(C(N)=O)c2)C1 (racemic) [Compound 595, 5-[[2-[(2R,5S)-2-(2-Fluorophenyl)-5-methyl-1-piperidyl]-2-oxo-acetyl]amino]pyridine-3-carboxamide]
PRMT5 [1]
  pIC50: 6.30 to 7.30
PRMT5 [2]
  pIC50: 6.30 to 7.30
PRMT5 [3]
  pIC50: 6.30 to 7.30
[4]
  pIC50: < 6.00
[5]
  pIC50: > 7.00
  MTAP intact/deleted ratio: A (an IC50 ratio greater than or equal to 10 fold)
[6]
  pIC50: 5.00 to 6.00

## Cc1cc(NC(=O)C(=O)N2C[C@H](C)CC[C@H]2c2cccc(Br)c2)cnc1N (racemic) [Compound 600, N-(6-amino-5-methyl-3-pyridyl)-2-[(2S,5R)-2-(3-bromophenyl)-5-methyl-1-piperidyl]-2-oxo-acetamide]
PRMT5 [1]
  pIC50: 6.30 to 7.30
PRMT5 [2]
  pIC50: 6.30 to 7.30
PRMT5 [3]
  pIC50: 6.30 to 7.30
[4]
  pIC50: 6.00 to 7.00
[5]
  pIC50: > 7.00
  MTAP intact/deleted ratio: A (an IC50 ratio greater than or equal to 10 fold)
[6]
  pIC50: > 6.00

## C[C@@H]1CC[C@@H](c2cccc(Br)c2)N(C(=O)C(=O)Nc2cncc(C(N)=O)c2)C1 (racemic) [Compound 601, 5-(2-(2-(3-bromophenyl)-5-methylpiperidin-1-yl)-2-oxoacetamido)nicotinamide]
PRMT5 [1]
  pIC50: 6.30 to 7.30
PRMT5 [2]
  pIC50: 6.30 to 7.30
PRMT5 [3]
  pIC50: 6.30 to 7.30
[4]
  pIC50: < 6.00
[5]
  pIC50: > 7.00
  MTAP intact/deleted ratio: A (an IC50 ratio greater than or equal to 10 fold)
[6]
  pIC50: 5.00 to 6.00

## C[C@@H]1CC[C@@H](c2ccc(O)c(C(C)(C)C)c2)N(C(=O)C(=O)Nc2cncc(C(N)=O)c2)C1 (racemic) [Compound 610, 5-[[2-[(2R,5S)-2-(3-tert-Butyl-4-hydroxy-phenyl)-5-methyl-1-piperidyl]-2-oxo-acetyl]amino]pyridine-3-carboxamide]
PRMT5 [1]
  pIC50: 6.30 to 7.30
PRMT5 [2]
  pIC50: 6.30 to 7.30
PRMT5 [3]
  pIC50: 6.30 to 7.30
[4]
  pIC50: < 6.00
[5]
  pIC50: > 7.00
  MTAP intact/deleted ratio: A (an IC50 ratio greater than or equal to 10 fold)
[6]
  pIC50: 5.00 to 6.00
